Measurements: US8034803B2, “Photodynamic therapy of occult age-related macular degeneration” (QLT Inc., priority 2001, dated 2011)
Read-outs that look alike come from different tables or passages of the source.

Experiments:
[1] = tested on: occult choroidal neovascular lesions; assay: Verteporfin PDT of occult CNV lesions versus placebo, best corrected visual acuity at 24 months; format: in vivo, human
Protocol: Subjects having, suspected of having, or otherwise afflicted with occult neovascular lesions were evaluated for best corrected visual acuity as outlined in Example 1, and their lesion size determined angiographically as outlined in Example 2. […] The greatest linear dimension of the entire CNV lesion was […], corresponding to 9 Disc Areas. Subjects were evaluated for visual acuity and lesion size about 1 week prior to treatment. Subjects were randomly assigned to a treatment group and a placebo group.
For each subject in the treatment group, a 15 mg-vial of liposomally-formulated verteporfin (Verteporfin for Injection (Visudyne™) was reconstituted with 7 mL of sterile water for injection to provide 7.5 mL containing a final concentration of 2 mg/mL. The volume of reconstituted drug required to achieve a dose of 6 mg/M^2 (based upon the height and weight of the subject, calculated from a nomogram) was withdrawn from the vial and diluted with 5% dextrose for injection to make a total infusion volume of 30 mL. The full infusion volume was administered intravenously over 10 minutes using an appropriate syringe pump and in-line filter. Fifteen minutes after the start of the infusion, light was administered to the lesion from a diode laser through a fiber optic delivered via a slit lamp, and utilizing a suitable lens. A light dose of 50J/cm^2 was applied at a fluency rate of 600 mW/cm^2, 50J/cm^2 (83 second exposure).
Subjects were evaluated by fluorescein angiography approximately every three months, and their best corrected visual acuity was assessed. Subjects were retreated if evidence of CNV leakage was detected by fluorescein angiography.

[2] = tested on: CNV lesions classified as predominantly classic or minimally classic; conditions: cited from earlier work
[3] = baseline visual acuity <65 letters, lesion size all, 24 months
[4] = baseline visual acuity <65 letters, lesion size ≦4DA, 24 months
[5] = baseline visual acuity <65 letters, lesion size ≧4DA, 24 months
[6] = baseline visual acuity ≧65 letters, lesion size all, 24 months
[7] = baseline visual acuity ≧65 letters, lesion size ≦4DA, 24 months
[8] = baseline visual acuity ≧65 letters, lesion size ≧4DA, 24 months

Substance: verteporfin
- 30 Letter Response Rate (percent of subjects losing less than 30 letters) Difference V-P [1, 3]: 27.5%
- Mean VA Difference [1, 3]: 11.7
- 15 Letter Response Rate (percent of subjects losing less than 15 letters) Difference V-P ([1]; baseline visual acuity <65 letters, lesion size all, 24 months after initial treatment, 6 mg/M^2 i.v., 50 J/cm^2): 33.8%
- 15 Letter Response Rate (percent of subjects losing less than 15 letters) Difference V-P [1, 4]: 43.8%
- 30 Letter Response Rate (percent of subjects losing less than 30 letters) Difference V-P [1, 4]: 19.4%
- Mean VA Difference [1, 4]: 12.3
- 15 Letter Response Rate (percent of subjects losing less than 15 letters) Difference V-P [1, 5]: 21.5%
- 30 Letter Response Rate (percent of subjects losing less than 30 letters) Difference V-P [1, 5]: 30.0%
- Mean VA Difference [1, 5]: 9.4
- 15 Letter Response Rate (percent of subjects losing less than 15 letters) Difference V-P [1, 6]: −3.9%
- 30 Letter Response Rate (percent of subjects losing less than 30 letters) Difference V-P [1, 6]: 8.5%
- Mean VA Difference [1, 6]: 1.5
- 15 Letter Response Rate (percent of subjects losing less than 15 letters) Difference V-P [1, 7]: 12.5%
- 30 Letter Response Rate (percent of subjects losing less than 30 letters) Difference V-P [1, 7]: 26.8%
- Mean VA Difference [1, 7]: 9.3
- 15 Letter Response Rate (percent of subjects losing less than 15 letters) Difference V-P [1, 8]: −24%
- 30 Letter Response Rate (percent of subjects losing less than 30 letters) Difference V-P [1, 8]: −5.3%
- Mean VA Difference [1, 8]: −3.3
- response of subjects having occult lesions to PDT ([1]; study of Example 3, in words): respond to PDT
- treatment benefit with verteporfin PDT ([2]; lesions classified as minimally classic): did not
- treatment benefit with verteporfin PDT ([2]; lesions classified as predominantly classic): large treatment benefit
